Blank lines part the entries; values can stand above or below the compound they belong to.
Assay: 1-octanol/water partition coefficient (logPow) of the matrix by the high-performance liquid chromatography method, OECD Test Guideline 117
Assay type: physicochemical
Conditions: HPLC method of OECD Test Guideline 117, matrix for MALDI mass spectrometry
Description: The low polar matrix for MALDI mass spectrometry which can be used in the invention is a low polar matrix having a 1-octanol/water partition coefficient from 4.1 to 4.8 (more preferably from 4.3 to 4.8). The 1-octanol/water partition coefficient of the matrix is a numerical value measured by the high-performance liquid chromatography method described in OECD Test Guideline 117.

Compound: N#CC(=Cc1ccc(O)cc1)C(=O)O [α-cyano-4-hydroxycinnamic acid]
- chromatographic logP: 0.9

- chromatographic logP (1-octanol/water): 0.6
Compound: O=C(O)c1cc(O)ccc1O [2,5-dihydroxybenzoic acid]

Compound: C/C(C=C(C#N)C#N)=C\c1ccc(C(C)(C)C)cc1 [Trans-2-[3-(4-tert-butylphenyl)-2-methyl-2-propenylidene]malononitrile]
- 1-octanol/water partition coefficient (logPow): 4.6

— patent US10410851B2, “Matrix-assisted laser desorption mass spectrometry of high molecular weight polyoxyethylene derivative” (NOF CORPORATION, priority 2015, dated 2019)
